Experimental data published in paper PMC12198407, “Preclinical and first-in-human of purinostat mesylate, a novel selective HDAC I/IIb inhibitor, in relapsed/refractory multiple myeloma and lymphoma” (Signal Transduction and Targeted Therapy, 2025).
Like-named read-outs stand apart in the source and are kept apart here.

What was measured:
HDAC8 = HDAC8 (Homo sapiens, UniProt Q9BY41); test: HDAC enzyme activity in vitro; assay type: biochemical
[1] = test system: cMYC-KRAS12V plasmacytoma; test: cMYC-KRAS12V primary plasmacytoma (PCT) mouse model; assay type: in vivo, BALB/c mice
Procedure: The cMYC-KRAS12V-induced plasmacytoma mouse model in BALB/c (GemPharmatech Co., Ltd., Nanjing, China) was established as previously described.[33] On day 28 or 35 post bone marrow transplantation, recipients received various treatments. The 5TMM mouse model was established as previously described.[55] The 5TGM1-luc cells were intravenously injected into 6-week-old C57BL/KawRij mice (Harlan Co. Netherlands) with 2 × 10^6 cells per mouse. After three weeks, mice were treated with vehicle or PM 10 mg/kg. Serum Ca^2+ levels were monitored weekly for three weeks after the start of administration. Kaplan-Meier survival curves were generated for each treatment group. Additionally, the 5TMM mouse model studying PM’s effects on immune response and bone destruction involved randomizing mice into vehicle and PM (10 mg/kg) groups one week after inoculation. T cell subsets were analyzed by flow cytometry 24 h after a single dose and 1 month after vehicle or PM treatment. The mice were sacrificed after 1 month of treatment, and the bone destruction was detected by Micro-CT.

[2] = test system: class IIb HDAC substrate α-tubulin in SUDHL-6, Daudi, Raji, Ramos, RPMI-8226; test: Cellular acetylation of α-tubulin; assay type: cell-based, human
From the text: The results of these cell experiments were consistent with the in vitro enzyme activity assay results.

[3] = Systemic active allergic test; assay type: in vivo, guinea pigs; details: 0.204 and 0.612 mg/mL
Procedure: This experiment included a negative control group, a positive control group, a blank formulation group of injectable Purinostat Mesylate, and low and high dose groups of injectable Purinostat Mesylate, with 6 British guinea pigs in each group, evenly divided by sex. During the sensitization phase, the low and high dose groups received intravenous injections of 0.204 mg/mL and 0.612 mg/mL of injectable Purinostat Mesylate (1 and 3 times the maximum intended clinical concentration, respectively) at a volume of 0.5 mL per guinea pig. The blank formulation group received intravenous injections of the excipient in the same volume as the high dose group. The negative control group received an equal volume of 0.9% sodium chloride injection, while the positive control group received an intraperitoneal injection of 4 mg of ovalbumin solution per guinea pig. Sensitization was performed once every other day for a total of 3 consecutive sensitizations. On days 14 and 21 after the last sensitization, each group received an intravenous injection of 2 times the sensitizing dose to provoke an allergic response. Reactions and mortality were observed 30 minutes after the provocation injection.

[4] = test system: Salmonella typhimurium TA97, TA98, TA100, TA102, TA1535; test: Microbial reverse mutation test (Ames); details: 50–5000 μg/plate, with and without S9
Procedure: In this experiment, two methods were selected: one with the S9 metabolic activation system and one without. The test strains used were histidine-dependent mutant strains of Salmonella typhimurium, specifically TA97, TA98, TA100, TA102, and TA1535. Under both conditions, with and without the S9 metabolic activation system, Purinostat Mesylate was tested at a maximum dose of 5000 μg/plate, along with four additional dose groups of 1500, 500, 150, and 50 μg/plate. A solvent control group (DMSO) and a positive control group (administering the appropriate positive agent) were also included, with each concentration tested in triplicate. The experiment was repeated once.

[5] = Pharmacokinetics and tissue distribution in Ighmyc mice; assay type: in vivo
From the text: In B cell-related tumors, the mechanism of disease often involves the translocation of the MYC oncogene to the immunoglobulin promoter region, leading to its hyperactivation. The translocation of the MYC gene to the IGH enhancer (t(8;14) (q24;q32)) is a molecular hallmark of Burkitt lymphoma. The Ighmyc (Eμ-myc) mouse model successfully mimics this pathogenic mechanism by translocating the MYC oncogene to the immunoglobulin μ enhancer. […] We isolated bone marrow and enlarged spleen from diseased Ighmyc mice and transplanted them into normal C57 mice via tail vein injection to induce a primary B cell lymphoma model. This study aims to investigate the pharmacokinetic characteristics and tissue distribution of Purinostat Mesylate in plasma and target organs in the context of primary B cell lymphoma.
The mean residence times (MRT) were 6.00 ± 1.00 h, 24.8 ± 1.03 h, and 23.4 ± 3.59 h, respectively. […] However, in Ighmyc mice, the plasma drug concentration after the same duration was 7.11 ± 3.15 ng/mL. […] The pharmacokinetic characteristics support the notion that spaced dosing of the drug can still maintain favorable pharmacodynamic outcomes.

CYP2B6 = molecular target: T1, CYP2B6 (Homo sapiens, UniProt P20813); test: CYP inhibition, human liver microsomes; assay type: in vitro ADME
T1 construct: human liver microsomal cytochrome P450 isoenzymes; from tissue; host or cells: human liver microsomes

CYP2C9 = molecular target: T2, CYP2C9 (Homo sapiens, UniProt P11712); test: CYP inhibition, human liver microsomes; assay type: in vitro ADME
T2 construct: human liver microsomal cytochrome P450 isoenzymes; from tissue; host or cells: human liver microsomes

[6] = Metabolic stability in liver microsomes; assay type: in vitro ADME; details: for half-life at 1 µM: NADPH, 37°C; for CLint scaled at 1 µM: read-out: liver intrinsic clearance (CLint)
Procedure: The metabolic stability of Purinostat Mesylate was evaluated in CD-1 mice, SD rats, Beagle dogs, crab-eating monkeys, and human liver microsomes. Under conditions of 37°C, 1 µM of Purinostat Mesylate was incubated with liver microsomes from the five species mentioned above, supplemented with a NADPH regeneration system, for varying durations up to 60 minutes. The concentration of Purinostat Mesylate in the resulting samples was analyzed using LC/MS/MS.

HDAC8, sequence (Q9BY41 whole entry): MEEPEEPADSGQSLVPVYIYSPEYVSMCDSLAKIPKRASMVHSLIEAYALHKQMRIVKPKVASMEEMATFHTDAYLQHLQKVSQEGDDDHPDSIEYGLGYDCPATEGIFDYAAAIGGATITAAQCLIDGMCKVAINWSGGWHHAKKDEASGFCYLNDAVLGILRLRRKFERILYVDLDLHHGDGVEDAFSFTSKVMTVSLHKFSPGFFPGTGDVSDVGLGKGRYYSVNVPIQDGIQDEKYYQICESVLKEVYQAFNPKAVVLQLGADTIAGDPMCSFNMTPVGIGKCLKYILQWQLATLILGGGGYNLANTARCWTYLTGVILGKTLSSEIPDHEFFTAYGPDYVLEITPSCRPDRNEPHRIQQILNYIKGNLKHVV
T2 sequence (P11712 whole entry): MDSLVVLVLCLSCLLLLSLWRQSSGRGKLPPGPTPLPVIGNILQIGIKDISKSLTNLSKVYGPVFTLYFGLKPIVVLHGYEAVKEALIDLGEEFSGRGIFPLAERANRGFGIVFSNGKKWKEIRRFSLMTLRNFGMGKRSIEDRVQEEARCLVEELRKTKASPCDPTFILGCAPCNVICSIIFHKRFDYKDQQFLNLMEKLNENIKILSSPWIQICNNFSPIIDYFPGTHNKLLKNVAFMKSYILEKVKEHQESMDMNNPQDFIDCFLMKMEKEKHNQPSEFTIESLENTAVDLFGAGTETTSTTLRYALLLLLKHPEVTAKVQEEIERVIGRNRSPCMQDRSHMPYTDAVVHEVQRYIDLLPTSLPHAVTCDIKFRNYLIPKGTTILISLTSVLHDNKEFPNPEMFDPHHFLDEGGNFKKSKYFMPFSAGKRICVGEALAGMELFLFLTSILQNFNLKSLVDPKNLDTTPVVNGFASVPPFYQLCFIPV
T1 sequence (P20813 whole entry): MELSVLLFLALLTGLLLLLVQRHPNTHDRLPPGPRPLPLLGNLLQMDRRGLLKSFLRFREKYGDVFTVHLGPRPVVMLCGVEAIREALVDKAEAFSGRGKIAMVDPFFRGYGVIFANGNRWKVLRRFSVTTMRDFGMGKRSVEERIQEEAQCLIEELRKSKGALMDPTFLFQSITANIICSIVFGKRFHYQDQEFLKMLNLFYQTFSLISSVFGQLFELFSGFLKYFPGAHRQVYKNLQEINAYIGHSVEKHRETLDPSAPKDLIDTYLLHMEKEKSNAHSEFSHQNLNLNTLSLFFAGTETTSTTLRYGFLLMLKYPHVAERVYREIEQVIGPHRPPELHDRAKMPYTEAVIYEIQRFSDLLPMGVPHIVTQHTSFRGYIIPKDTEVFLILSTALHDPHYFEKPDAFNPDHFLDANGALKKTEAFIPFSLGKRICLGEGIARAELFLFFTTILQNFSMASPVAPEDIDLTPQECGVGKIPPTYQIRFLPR

With `CN(Cc1nc2c(N3CCOCC3)nc(-c3ccc(N)cc3)nc2n1C)c1ncc(C(=O)NO)cn1.CS(=O)(=O)O` [PM, 2-(((2-(4-Aminophenyl)-9-methyl-6-(4-morpholinyl)-9H-purine-8-yl)methyl)methylamino)-N-hydroxy-5-pyrimidine-carboxamide Mesylate] the IC50 (HDAC8) was 0.0038 µM, the “median survival time (MST)” value ([1]; 5 mg/kg, vehicle 47 days) was 68 days and the “median survival time (MST)” value ([1]; more severe PCT model, from day 35, PM 10 mg/kg, regimens per Table S9) was 59 days. For the same molecule, the “concentration inducing increased acetylation of α-tubulin” value [2] was 3 to 10 nM, the “systemic active allergic test outcome” value [3] was “negative” and the Ames test result [4] was “negative”. The “abnormal B220+/IgM- cell population in peripheral blood” value ([5]; 48 hours after single i.v. 5 mg/kg, untreated 48.9%) was “about 18.8%”, the AUC(0-t) ([5]; Ighmyc (Eμ-myc), mouse, lymph node, iv, single i.v. 5 mg/kg, read-out: lymph node AUC(0-72h)) was 16100 ± 2040 ng·h/mL and the Cmax ([5]; Ighmyc (Eμ-myc), mouse, lymph nodes, iv, single i.v. 5 mg/kg, read-out: Cmax in lymph nodes) was 578 ± 153 ng/mL. The MRT ([5]; Ighmyc (Eμ-myc), mouse, lymph nodes, iv, single i.v. 5 mg/kg, read-out: MRT in lymph nodes) was 23.4 ± 3.59 h, the half-life ([5]; Ighmyc (Eμ-myc), mouse, lymph nodes, iv, single i.v. 5 mg/kg, read-out: T1/2 in lymph nodes (converted)) was 21.9 ± 10.2 h and the concentration at 48 h ([5]; Ighmyc (Eμ-myc), mouse, lymph nodes, iv, single i.v. 5 mg/kg, read-out: concentration in lymph nodes at 48 hours) was 178 ± 46 ng/mL. The Cmax ([5]; Ighmyc (Eμ-myc), mouse, plasma, iv, single i.v. 5 mg/kg, read-out: Cmax in plasma) was 304 ± 277 ng/mL, the MRT ([5]; Ighmyc (Eμ-myc), mouse, plasma, iv, single i.v. 5 mg/kg, read-out: MRT in plasma) was 6 ± 1 h and the half-life ([5]; Ighmyc (Eμ-myc), mouse, plasma, iv, single i.v. 5 mg/kg, read-out: T1/2 in plasma (converted)) was 12.2 ± 2.1 h. The AUC(0-t) ([5]; Ighmyc (Eμ-myc), mouse, plasma, iv, single i.v. 5 mg/kg, read-out: plasma AUC(0-48h)) was 875 ± 437 ng·h/mL, the concentration at 24 h ([5]; Ighmyc (Eμ-myc), mouse, plasma, iv, single i.v. 5 mg/kg, read-out: plasma drug concentration at 24 hours) was 7.11 ± 3.15 ng/mL and the Cmax ([5]; Ighmyc (Eμ-myc), mouse, spleen, iv, single i.v. 5 mg/kg, read-out: Cmax in spleen) was 410 ± 69.9 ng/mL. It also gave an MRT ([5]; Ighmyc (Eμ-myc), mouse, spleen, iv, single i.v. 5 mg/kg, read-out: MRT in spleen) of 24.8 ± 1.03 h, a half-life ([5]; Ighmyc (Eμ-myc), mouse, spleen, iv, single i.v. 5 mg/kg, read-out: T1/2 in spleen (converted)) of 20.8 ± 7.94 h and a concentration at 48 h ([5]; Ighmyc (Eμ-myc), mouse, spleen, iv, single i.v. 5 mg/kg, read-out: concentration in spleen at 48 hours) of 134 ± 18.5 ng/mL. The AUC(0-t) ([5]; Ighmyc (Eμ-myc), mouse, spleen, iv, single i.v. 5 mg/kg, read-out: spleen AUC(0-72h)) was 12500 ± 244 ng·h/mL, the “plasma drug concentration at 24 hours” value ([5]; single i.v. 5 mg/kg, listed as Purinostat Mesylate, 5 mg/kg) was 7.11 ng/mL and the IC50 (CYP2B6) was over 10 µM. It also gave an IC50 (CYP2C9) of over 10 µM, a half-life at 1 µM ([6]; Beagle, dog) of 1.63 h and a CLint scaled at 1 µM ([6]; Beagle, dog) of 20.4 mL/min/kg. The half-life at 1 µM ([6]; CD-1, mouse) was over 3.1 h, the CLint scaled at 1 µM ([6]; CD-1, mouse) was under 29.7 mL/min/kg and the half-life at 1 µM ([6]; SD, rat) was over 3.1 h. The CLint scaled at 1 µM ([6]; SD, rat) was under 13.5 mL/min/kg, the half-life at 1 µM ([6]; human) was over 3.1 h and the CLint scaled at 1 µM ([6]; human) was under 6.8 mL/min/kg. For the same molecule, the half-life at 1 µM ([6]; monkey) was 0.0517 h and the CLint scaled at 1 µM ([6]; monkey) was 598 mL/min/kg.
